Molecular target: T1, AsPC-1 HiBiT-KRASG12D (Homo sapiens, UniProt P01116, G12D)
T1 construct: insert the HiBiT tag onto the N-terminus of one or more of the endogenous KRAS alleles; endogenous in cells; host or cells: AsPC-1 (ATCC CRL-1682), CRISPR-Cas9 knock-in clone, one tagged allele
Assay: HiBiT degradation assay (G12D), AsPC-1 HiBiT-KRASG12D cells
Type: cell-based
Conditions: 24 hours treatment; for Dmax: ASPC1, AsPC-1 HiBiT-KRASG12D cells, maximum degradation observed; for DC50: AsPC-1 HiBiT-KRASG12D cells, HiBiT luminescence
Summary of the method: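 AsPC-1 cells (homozygous G12D) carrying a CRISPR knock-in N-terminal HiBiT tag on endogenous KRAS were treated with compounds for 24 hours at 37° C, 5% CO2, in triplicate. Alamar blue viability was read first, then cells were washed and lysed with Nano-Glo HiBiT reagent for 45 minutes before luminescence reading.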

T1 sequence (P01116 1-188 isoform P01116-2 G12D): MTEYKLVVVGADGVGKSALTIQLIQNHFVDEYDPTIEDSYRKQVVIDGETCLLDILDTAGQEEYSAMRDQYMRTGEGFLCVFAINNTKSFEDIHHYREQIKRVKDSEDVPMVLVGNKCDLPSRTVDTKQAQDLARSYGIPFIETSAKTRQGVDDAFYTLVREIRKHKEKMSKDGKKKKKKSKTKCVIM

SMILES | Dmax [%] | DC50 [µM]
C#Cc1c(F)ccc2cc(O)cc(-c3ncc4c(N5CC6CCC(C5)N6)nc(OCCN5CCC(CC6CCN(c7cc([C@H](C(=O)N8C[C@H](O)C[C@H]8C(=O)N[C@@H](C)c8ccc(-c9ccnn9C)cc8)C(C)C)on7)CC6)CC5)nc4c3F)c12 [Compound 168, (2S,4R)-1-[(2R)-2-(3-{4-[(1-{2-[(4-{3,8-diazabicyclo[3.2.1]octan-3-yl}-7-(8-ethynyl-7-fluoro-3-hydroxynaphthalen-1-yl)-8-fluoropyrido[4,3-d]pyrimidin-2-yl)oxy]ethyl}piperidin-4-yl)methyl]piperidin-1-yl}-1,2-oxazol-5-yl)-3-methylbutanoyl]-4-hydroxy-N-[(1S)-1-[4-(1-methyl-1H-pyrazol-5-yl)phenyl]ethyl]pyrrolidine-2-carboxamide] | 80 to 100 | < 0.6
CCc1cccc2cc(O)cc(-c3ncc4c(N5CC6CCC(C5)N6)nc(OCCN5CCC(OC6CN(c7cc([C@H](C(=O)N8C[C@H](O)C[C@H]8C(=O)N[C@@H](C)c8ccc(-c9scnc9C)cc8)C(C)C)on7)C6)CC5)nc4c3F)c12 [Compound 215, (2S,4R)-1-[(2R)-2-(3-{3-[(1-{2-[(4-{3,8-diazabicyclo[3.2.1]octan-3-yl}-7-(8-ethyl-3-hydroxynaphthalen-1-yl)-8-fluoropyrido[4,3-d]pyrimidin-2-yl)oxy]ethyl}piperidin-4-yl)oxy]azetidin-1-yl}-1,2-oxazol-5-yl)-3-methylbutanoyl]-4-hydroxy-N-[(1S)-1-[4-(4-methyl-1,3-thiazol-5-yl)phenyl]ethyl]pyrrolidine-2-carboxamide] | 80 to 100 | < 0.6
CCc1cccc2cc(O)cc(-c3ncc4c(N5CC6CCC(C5)N6)nc(OCCN5CCC(CN6CCN(c7cc([C@H](C(=O)N8C[C@H](O)C[C@H]8C(=O)N[C@@H](C)c8ccc(-c9scnc9C)cc8)C(C)C)on7)CC6)CC5)nc4c3F)c12 (relative stereo) [Compound 276] | 80 to 100 | < 0.6
CCc1cccc2cc(O)cc(-c3ncc4c(N5CC6CCC(C5)N6)nc(OC[C@]56CCCN5[C@H](COC(=O)N5CCN(c7cc([C@H](C(=O)N8C[C@H](O)C[C@H]8C(=O)N[C@@H](C)c8ccc(-c9scnc9C)cc8)C(C)C)on7)CC5)CC6)nc4c3F)c12 [Compound 105, [(3S,7aR)-7a-{[(4-{3,8-diazabicyclo[3.2.1]octan-3-yl}-7-(8-ethyl-3-hydroxynaphthalen-1-yl)-8-fluoropyrido[4,3-d]pyrimidin-2-yl)oxy]methyl}-hexahydro-1H-pyrrolizin-3-yl]methyl 4-{5-[(2R)-1-[(2S,4R)-4-hydroxy-2-{[(1S)-1-[4-(4-methyl-1,3-thiazol-5-yl)phenyl]ethyl]carbamoyl}pyrrolidin-1-yl]-3-methyl-1-oxobutan-2-yl]-1,2-oxazol-3-yl}piperazine-1-carboxylate] | 80 to 100 | < 0.6
C#Cc1c(F)ccc2cccc(-c3ncc4c(N5CC6CCC(C5)N6)nc(OC[C@]56CCCN5[C@H](COC(=O)N5CCN(c7cc([C@H](C(=O)N8C[C@H](O)C[C@H]8C(=O)N[C@@H](C)c8ccc(-c9scnc9C)cc8)C(C)C)on7)CC5)CC6)nc4c3F)c12 [Compound 53, [(3S,7aR)-7a-{[(4-{3,8-diazabicyclo[3.2.1]octan-3-yl}-7-(8-ethynyl-7-fluoronaphthalen-1-yl)-8-fluoropyrido[4,3-d]pyrimidin-2-yl)oxy]methyl}-hexahydro-1H-pyrrolizin-3-yl]methyl 4-{5-[(2R)-1-[(2S,4R)-4-hydroxy-2-{[(1S)-1-[4-(4-methyl-1,3-thiazol-5-yl)phenyl]ethyl]carbamoyl}pyrrolidin-1-yl]-3-methyl-1-oxobutan-2-yl]-1,2-oxazol-3-yl}piperazine-1-carboxylate] | 80 to 100 | < 0.6
CCc1cccc2cc(O)cc(-c3ncc4c(N5CC6CCC(C5)N6)nc(OC[C@@H]5CN(CC6CN(c7cc([C@@H](C(=O)N8C[C@H](O)C[C@H]8C(=O)N[C@@H](C)c8ccc(-c9scnc9C)cc8)C(C)C)on7)C6)CCN5C)nc4c3F)c12 [Compound 164, (2S,4R)-1-[(2S)-2-[3-(3-{[(3S)-3-{[(4-{3,8-diazabicyclo[3.2.1]octan-3-yl}-7-(8-ethyl-3-hydroxynaphthalen-1-yl)-8-fluoropyrido[4,3-d]pyrimidin-2-yl)oxy]methyl}-4-methylpiperazin-1-yl]methyl}azetidin-1-yl)-1,2-oxazol-5-yl]-3-methylbutanoyl]-4-hydroxy-N-[(1S)-1-[4-(4-methyl-1,3-thiazol-5-yl)phenyl]ethyl]pyrrolidine-2-carboxamide] | 20 to 60 | > 3
CCc1cccc2cc(O)cc(-c3ncc4c(N5CC6CCC(C5)N6)nc(OCCN5CCN(c6cc([C@H](C(=O)N7C[C@H](O)C[C@H]7C(=O)N[C@@H](C)c7ccc(-c8scnc8C)cc7)C(C)C)on6)CC5)nc4c3F)c12 (relative stereo) [Compound 134, (2S,4R)-1-[(2R*)-2-[3-(4-{2-[(4-{3,8-diazabicyclo[3.2.1]octan-3-yl}-7-(8-ethyl-3-hydroxynaphthalen-1-yl)-8-fluoropyrido[4,3-d]pyrimidin-2-yl)oxy]ethyl}piperazin-1-yl)-1,2-oxazol-5-yl]-3-methylbutanoyl]-4-hydroxy-N-[(1S)-1-[4-(4-methyl-1,3-thiazol-5-yl)phenyl]ethyl]pyrrolidine-2-carboxamide] | 20 to 60 | 1 to 3
C#Cc1c(F)ccc2cc(O)cc(-c3ncc4c(N5CC6CCC(C5)N6)nc(OCCN5CCC(CC6CCN(c7cc([C@@H](C(=O)N8C[C@H](O)C[C@H]8C(=O)N[C@@H](C)c8ccc(-c9ccnn9C)cc8)C(C)C)on7)CC6)CC5)nc4c3F)c12 [Compound 169, (2S,4R)-1-[(2S)-2-(3-{4-[(1-{2-[(4-{3,8-diazabicyclo[3.2.1]octan-3-yl}-7-(8-ethynyl-7-fluoro-3-hydroxynaphthalen-1-yl)-8-fluoropyrido[4,3-d]pyrimidin-2-yl)oxy]ethyl}piperidin-4-yl)methyl]piperidin-1-yl}-1,2-oxazol-5-yl)-3-methylbutanoyl]-4-hydroxy-N-[(1S)-1-[4-(1-methyl-1H-pyrazol-5-yl)phenyl]ethyl]pyrrolidine-2-carboxamide] | 20 to 60 | 0.6 to 1
CCc1cccc2cc(O)cc(-c3ncc4c(N5CC6CCC(C5)N6)nc(OCCN5CCC6(CC5)CN(c5cc([C@@H](C(=O)N7C[C@H](O)C[C@H]7C(=O)NCc7ccc(-c8scnc8C)cc7)C(C)C)on5)C6)nc4c3F)c12 (relative stereo) [Compound 99, (2S,4R)-1-[(2R*)-2-[3-(7-{2-[(4-{3,8-diazabicyclo[3.2.1]octan-3-yl}-7-(8-ethyl-3-hydroxynaphthalen-1-yl)-8-fluoropyrido[4,3-d]pyrimidin-2-yl)oxy]ethyl}-2,7-diazaspiro[3.5]nonan-2-yl)-1,2-oxazol-5-yl]-3-methylbutanoyl]-4-hydroxy-N-{[4-(4-methyl-1,3-thiazol-5-yl)phenyl]methyl}pyrrolidine-2-carboxamide] | 20 to 60 | > 3
CCc1cccc2cc(O)cc(-c3ncc4c(N5CC6CCC(C5)N6)nc(OCCN5CCC(CC6(F)CN(CC(=O)N[C@H](C(=O)N7C[C@H](O)C[C@H]7C(=O)N[C@@H](C)c7ccc(-c8scnc8C)cc7)C(C)(C)C)C6)CC5)nc4c3F)c12 [Compound 263, (2S,4R)-1-[(2S)-2-(2-{3-[(1-{2-[(4-{3,8-diazabicyclo[3.2.1]octan-3-yl}-7-(8-ethyl-3-hydroxynaphthalen-1-yl)-8-fluoropyrido[4,3-d]pyrimidin-2-yl)oxy]ethyl}piperidin-4-yl)methyl]-3-fluoroazetidin-1-yl}acetamido)-3,3-dimethylbutanoyl]-4-hydroxy-N-[(1S)-1-[4-(4-methyl-1,3-thiazol-5-yl)phenyl]ethyl]pyrrolidine-2-carboxamide] | 80 to 100 | < 0.6
CCc1cccc2cc(O)cc(-c3ncc4c(N5CC6CCC(C5)N6)nc(OC[C@@]56CCCN5[C@H](COC(=O)N5CCN(c7cc([C@H](C(=O)N8C[C@H](O)C[C@H]8C(=O)N[C@@H](C)c8ccc(-c9scnc9C)cc8)C(C)C)on7)CC5)CC6)nc4c3F)c12 (relative stereo) [Compound 107, [(3R*,7aR**)-7a-{[(4-{3,8-diazabicyclo[3.2.1]octan-3-yl}-7-(8-ethyl-3-hydroxynaphthalen-1-yl)-8-fluoropyrido[4,3-d]pyrimidin-2-yl)oxy]methyl}-hexahydro-1H-pyrrolizin-3-yl]methyl 4-{5-[(2R***)-1-[(2S,4R)-4-hydroxy-2-{[(1S)-1-[4-(4-methyl-1,3-thiazol-5-yl)phenyl]ethyl]carbamoyl}pyrrolidin-1-yl]-3-methyl-1-oxobutan-2-yl]-1,2-oxazol-3-yl}piperazine-1-carboxylate] | 80 to 100 | < 0.6
C#Cc1c(F)ccc2cc(O)cc(-c3ncc4c(N5CC6CCC(C5)N6)nc(OCCN5CCC(CC6CN(c7cc([C@@H](C(=O)N8C[C@H](O)C[C@H]8C(=O)N[C@@H](C)c8ccc(-c9scnc9C)cc8)C(C)C)on7)C6)CC5)nc4c3F)c12 [Compound 217, (2S,4R)-1-[(2S)-2-(3-{3-[(1-{2-[(4-{3,8-diazabicyclo[3.2.1]octan-3-yl}-7-(8-ethynyl-7-fluoro-3-hydroxynaphthalen-1-yl)-8-fluoropyrido[4,3-d]pyrimidin-2-yl)oxy]ethyl}piperidin-4-yl)methyl]azetidin-1-yl}-1,2-oxazol-5-yl)-3-methylbutanoyl]-4-hydroxy-N-[(1S)-1-[4-(4-methyl-1,3-thiazol-5-yl)phenyl]ethyl]pyrrolidine-2-carboxamide] | 20 to 60 | 1 to 3
